d = 2'-deoxy (DNA); r = 2'-OH (RNA)
Legend:
GC3/TK− cells = experiment: Cell proliferation (WST-1) in thymidine kinase-deficient GC3/TK− cells; type: cell-based, human; conditions: 6 hr transfection, additional 5 days
Method: FIGS. 2A-B illustrate the effect of TK knockdown on the cytotoxicity of the FdU-modified ssiRNA. (A) RKO cells were transfected with 1 nM TK siRNA (lanes 3 and 4) or Mis-dU/dA (lane 5). After 6 hr, the medium was replaced with fresh medium. On the following day, cells were transfected with TS6-FdU/dA ssiRNA (1 nM) for 6 hr (lanes 2, 4, and 5) after which time, cells were harvested for immunoblot analysis. RKO cells were treated with 5-fluorouracil (5 nM) for 6 hr before harvesting (lane 6). (B) GC3/TK− cells were transfected with various concentrations of TS6-dU/dA or TS6-FdU/dA ssiRNA. After 6 hr, the medium was replaced and after an additional 5 days, cell proliferation was determined with the WST-1 assay;
The human colon cancer RKO cell line, originally obtained from ATCC, has been previously well-characterized and was maintained in RPMI-1640 (Invitrogen; Carlsbad, Calif.) with 10% (v/v) dialyzed fetal bovine serum at 37° C. in a humidified incubator with 5% CO2 (Reference 11). The thymidine kinase-deficient GC3/TK− cells were a gift from Dr. Janet Houghton (Reference 18). Cells were routinely authenticated by morphology and growth curve analysis. […]
RKO cells were plated in 96-well plates at a density of 800 cells/well. […] Cell proliferation/viability was quantified by the WST-1 assay (Roche; Indianapolis, Ind.).

[1] = tested on: thymidylate synthase (TS) protein; experiment: Immunoblot analysis of TS protein (free and ITC-bound), Odyssey quantitation; type: cell-based, human; conditions: RKO cells, ssiRNA 10 nM, pre vs. 0 hr
[2] = tested on: human colon cancer RKO cell line; experiment: Cell proliferation assay (WST-1) in RKO cells; type: cell-based; conditions: 6 hr exposure then 96 hr growth, mean ± S.D., at least 3 experiments
Method: RKO cells were plated in 96-well plates at a density of 800 cells/well. On the following day, cells were incubated with ssiRNA/LF2000 complexes for 6 hr, after which time, the growth medium was replaced, and cells were grown for an additional 96 hr. Similarly, RKO cells were treated with FdU (#F0503, Sigma) for 6 hr followed by medium replacement and then allowed to grow for an additional 96 hr. Cell proliferation/viability was quantified by the WST-1 assay (Roche; Indianapolis, Ind.).

[3] = tested on: TS mRNA sequence in opposite orientation targeted by the sense (passenger) strand; experiment: Luciferase assay, vector with TS6 target site for the sense strand; type: cell-based, human; conditions: RKO cells, ssiRNA 0.1 nM, 24 hr
Method: (§1) FIG. 3 illustrates the effect of 3′-end modification on ssiRNA strand selection. RKO cells were transfected with luciferase vectors (including the TS6 target site for either the antisense (open bars) or sense strand (hatched bars)) in combination with ssiRNAs containing different 3′-end overhangs. After 24 hr, cells were harvested and luciferase activity was determined as described in the Materials and Methods section. Firefly/renilla luciferase activity from vector-alone transfection was normalized to 100%. All values represent the mean±S.D. from at least 4 separate experiments performed in duplicate;
(§2) FIGS. 4A-C illustrate the effect of 3′-end dU incorporation on ssiRNA strand selection. RKO cells were transfected with various TS6 ssiRNAs (1 nM) for 6 hr. After an additional 48 hr, cells were harvested for immunoblot (A) and qPCR (B) analysis. (C) Luciferase vectors (containing the siRNA target site for either the sense or antisense strand) were transfected into RKO cells in combination with different ssiRNAs. After 24 hr, cells were harvested and luciferase activity was determined as described in the Materials and Methods section. Luciferase activity from vector-alone transfection was normalized to 100%. All values represent the mean±S.D. from at least 4 separate experiments performed in duplicate;
(§3) A DNA oligonucleotide corresponding to the TS6 siRNA target sequence (TS mRNA nt 1058-1077: 5′-[…]-3′- SEQ ID NO: 23) was annealed to its complimentary antisense sequence and ligated into the pGL3-Promoter plasmid (Promega; Madison, WI) at restriction sites Hind III and Nco I. The luciferase mRNA expressed from this plasmid was targeted by the antisense strand of TS6 siRNA. A second plasmid was constructed with the TS mRNA sequence inserted in the opposite orientation so that it could be targeted by the sense or passenger strand of TS6 siRNA. […] After 24 hr, cells were washed with PBS, lysed in 1×PLG buffer, and firefly and renilla luciferase levels were determined by the Dual-Luciferase™ Reporter Assay system (Promega). […]

[4] = tested on: human colon cancer RKO cell line; experiment: Clonogenic assay in RKO cells; type: cell-based; conditions: 6 hr exposure, colonies counted after 8 days, mean ± S.D., at least 3 experiments
Method: RKO cells were plated in 6-well plates at a density of 600 cells/well. On the following day, cells were transfected with ssiRNA/LF2000 complexes for 6 hr after which time, the growth medium was replaced. Similarly, FdU was added to wells for 6 hr followed by medium replacement. After 8 days, cell colonies were fixed with Trypan blue solution (75% methanol/25% acetic acid/0.25% trypan blue), washed, and air-dried before counting colonies >50 cells.

[5] = tested on: TS6 siRNA target sequence (TS mRNA nt 1058-1077) targeted by the antisense strand; experiment: Luciferase assay, vector with TS6 target site for the antisense strand; type: cell-based, human; conditions: RKO cells, ssiRNA 0.1 nM, 24 hr
Method: as §1, §2, §3

TS6-dU/dA: unmodified TS-targeted ssiRNA, 5 dU on 3′-end of sense strand, 5 dA on 3′-end of antisense strand; SEQ ID NO: 3 and 4 (sense GGAUAUUGUCAGUCUUUAGGUUUUU; antisense CCUAAAGACUGACAAUAUCCAAAAA; sense: sugars from the 5' end r20 d5, backbone and T or U not given here; antisense: sugars from the 5' end r20 d5, backbone not given here)
IC50 (GC3/TK− cells): 51.4 ± 27.8 nM | TS protein levels immediately after transfection [1]: minimally affected | IC50 [2]: 81.9 nM | sense strand targeting, luciferase (in words) [3]: significantly reduced | IC50 [4]: 1.77 nM | antisense strand targeting, luciferase (in words) [5]: maintained
